Assay results published in the NIST ThermoML archive (doi:10.1016/j.jct.2014.02.018).
Values joined by “and” are separate entries in the source; they are usually repeats but may differ in a detail not shown here. Equal entries are not always repeated.

Details: Crystal, Calculated from knudsen effusion weight loss

Cn1cc(F)c(=O)n(C)c1=O [2,4(1H,3H)-pyrimidinedione, 5-fluoro-1,3-dimethyl-]
Details | vapor or sublimation pressure
317.18 K | 8.39e-05 kPa and 8.8e-05 kPa and 8.46e-05 kPa
319.21 K | 0.0001113 kPa and 0.0001195 kPa and 0.0001105 kPa
321.12 K | 0.0001414 kPa and 0.0001372 kPa and 0.000135 kPa
323.18 K | 0.0001684 kPa and 0.0001645 kPa and 0.0001712 kPa
325.22 K | 0.00021 kPa and 0.0002051 kPa and 0.0002013 kPa
327.13 K | 0.0002547 kPa and 0.0002583 kPa and 0.0002608 kPa
329.18 K | 0.0003128 kPa and 0.0003165 kPa and 0.000333 kPa
331.22 K | 0.0004074 kPa and 0.0004027 kPa and 0.0004159 kPa
333.12 K | 0.0005058 kPa and 0.0004953 kPa and 0.0005012 kPa
335.17 K | 0.0006116 kPa and 0.0006003 kPa and 0.0006128 kPa
337.24 K | 0.0007507 kPa and 0.0007652 kPa and 0.0007436 kPa
339.14 K | 0.0009104 kPa and 0.0009266 kPa and 0.0009283 kPa

O=c1[nH]cc(F)c(=O)[nH]1 [5-fluoro-2,4(1H,3H)-pyrimidinedione]
Details | vapor or sublimation pressure
411.14 K | 0.000178 kPa and 0.000166 kPa and 0.000165 kPa
413.1 K | 0.000207 kPa and 0.000197 kPa and 0.000198 kPa
415.14 K | 0.000239 kPa and 0.000235 kPa and 0.000246 kPa
417.14 K | 0.000261 kPa and 0.000283 kPa and 0.000278 kPa
419.14 K | 0.000347 kPa and 0.000332 kPa and 0.000351 kPa
421.18 K | 0.000418 kPa and 0.000401 kPa and 0.000406 kPa
423.16 K | 0.000477 kPa and 0.000472 kPa and 0.000474 kPa
425.11 K | 0.000588 kPa and 0.000561 kPa and 0.00058 kPa
427.16 K | 0.000669 kPa and 0.000668 kPa
429.15 K | 0.000836 kPa and 0.000794 kPa and 0.000829 kPa
431.11 K | 0.001027 kPa and 0.001013 kPa and 0.000961 kPa
433.17 K | 0.001185 kPa and 0.001148 kPa and 0.001135 kPa
